{"source": "patent US20090203594A1", "about": "“Anticancer peptide” (priority 2004, published 2009)", "key": {"[1]": {"system": "basal cell carcinoma cells", "assay": "Killing of basal cell carcinoma cells", "assay_type": "cell-based", "details": "line of basal cell carcinoma cells"}, "[2]": {"system": "MCF-7 breast cancer cells", "assay": "Killing of MCF-7 breast cancer cells (qualitative)", "assay_type": "cell-based, human"}, "[3]": {"system": "colon cancer line, CaCo-2", "assay": "WST viability assay, colon cancer line", "assay_type": "cell-based", "experimental": "(§1) For each cell line, the protocol was the same for determining the effects of pDBD*4R9.\n(§2) Cells were plated in equal numbers and washed free of growth medium.\n(§3) The peptide pDBD*4R9 was then added to the cells for one hour, after which they were returned to growth medium.\n(§4) At a suitable interval thereafter, they were assayed for viability by use of the WST assay (described above), which measures the ability of viable cells' mitochondria to metabolize and therefore change the color of a water soluble tetrazolium dye (WST). By measuring the absorbance of the color, one has a quantitative correlate of viability: More absorbance=more viable cells."}, "[4]": {"system": "ICR 27 leukemic cells", "assay": "Reduction in ICR 27 leukemic cells by exogenous application of peptide (cell count)", "assay_type": "cell-based, human", "details": "for Cells/ml after 23 h: 1 h in serum-free medium then growth medium, average of duplicate counts; for cell killing: ICR-27, peptide added exogenously without electroporation", "experimental": "At the maximum dose tested in this experiment, pDBD*4R9 caused over a 2-log loss of cells.\nAt t=0, growing cells were removed from medium, washed, and plated at 4.0×10^6 cells/ml in serum-free medium to which the peptide was added from a stock solution. Control peptide was GnRHR7 (Gonadotropin Releasing Hormone with a 7-arginine polymer added covalently). One hour later cells were diluted into growth medium. After 23 h, each culture was counted in duplicate. Average values are shown. Similar dose-related responses to pDBD*4R9 have been seen in 3 experiments."}, "[5]": {"system": "MCF-7 breast cancer cells", "assay": "WST-1 dye reduction viability assay, MCF-7", "assay_type": "cell-based, human", "experimental": "(§5) A more quantitative assay was carried out using as an endpoint the reduction of a water-soluble tetrazolium dye (WST-1). This method has been employed to follow the effects of various chemotherapeutic agents on malignant cells (Hwang, W. S., Chen, L. M., Huang, S. H., Wang, C. C., Tseng, M. T. Prediction of chemotherapy response in human leukemia using in vitro chemosensitivity test. Leuk Res. 17:685-688, 1993; Pieters, R., Loonen, A. H., Huismans, D. R., Broekema, G. J., Dirven, M. W., Heyenbrok, M. W., Hahlen, K., Veerman, A. J. In vitro drug sensitivity of cells with children with leukemia using the MTT assay with approved culture conditions. Blood 76:2327-2336, 1990).\n(§6) Viable cells can reduce the dye; dead cells cannot. The effects on pDBD*4R9 on MCF-7 breast cancer cells and non-malignant NIH-3T3 cells were compared (Table 2).\n(§7) 20,000 cells were plated in triplicate in a 96 well plate. 24 hr later, cells were washed once and growth medium was replaced with serum free medium containing pDBD*4R9 (termed ‘Frag49’ in the table) or no peptide (Control) and placed in a tissue culture incubator at 37 deg. After 1 hr, serum-containing medium was added to each well and the plates were reincubated for 5 hr. 20 μl of WST-1 dye was then added to each well, and 4 hr later, Absorbance at 450-595 nm was determined spectrophotometrically. A chemical blank (avg. of 4 wells, medium plus dye only) was subtracted from each raw score."}, "[6]": {"system": "breast cancer GT-MCF-7 cells", "assay": "AlarmarBlue viability assay on GT-MCF-7 cells", "assay_type": "cell-based, human", "details": "GT-MCF-7, four-hour treatment", "experimental": "as §1\nCells were plated in equal numbers and washed free of growth medium. […]\nIn the experiment on MCF-7 cells, an equivalent assay (AlarmarBlue) was used."}, "[7]": {"system": "CEM cell clone C1-15", "assay": "Exogenous peptide on CEM clone C1-15", "assay_type": "cell-based, human", "details": "CEM clone C1-15, peptide administered exogenously", "experimental": "(§8) As shown below, pDBD*R9 was administered to CEM cell clones ICR-27, C7-14, and C1-15. Two of these clones are resistant to the synthetic glucocorticoid dexamethasone, commonly used in the treatment of acute lymphoblastic leukemia."}, "[8]": {"system": "non-malignant NIH-3T3 cells", "assay": "WST-1 dye reduction viability assay, NIH-3T3", "assay_type": "cell-based", "experimental": "as §5, §6, §7"}, "[9]": {"system": "SWB-39 glioma", "assay": "Killing of SWB-39 glioma cells", "assay_type": "cell-based"}, "[10]": {"system": "human leukemic CEM C714 cells", "assay": "Exogenous peptide on CEM C7-14 leukemic cells (WST viability)", "assay_type": "cell-based", "experimental": "as §8, §1, §2, §3, §4"}, "[11]": {"system": "CEM C7-14 lymphoblastic clonal cell line", "assay": "Electroporation of pDBD*4 into CEM C7-14 cells, cell death", "assay_type": "cell-based, human", "details": "transfected by electroporation", "excerpt": "(§9) Derivation of ICR-27 cells is found in Molecular & Cellular Biology (1981) 1:512-21 and of CEM1-15 and CEM7-14 in Genomics (2003) 81:175-97."}, "[12]": {"system": "CEM 1-15 lymphoblastic clonal cell line", "assay": "Electroporation of pDBD*4 into CEM 1-15 cells, cell death", "assay_type": "cell-based, human", "details": "transfected by electroporation", "excerpt": "as §9"}, "[13]": {"system": "cell clones from the CEM leukemic cell system", "assay": "pDBD*4 in glucocorticoid-susceptible and -resistant clones of the CEM leukemic cell system", "assay_type": "cell-based, human", "experimental": "pDBD*4 was tested in cell clones from the CEM leukemic cell system. Some of those clones are susceptible to apoptotic cell death evoked by steroids of the glucocorticoid class; others are not. Both types of clones were killed by electroporation of pDBD*4 into the cells, whereas exogenous application of pDBD*4 produced no effect."}, "[14]": {"system": "ICR-27 lymphoblastic clonal cell line", "assay": "Electroporation of pDBD*4 into ICR-27 cells, cell death", "assay_type": "cell-based, human", "details": "transfected by electroporation", "experimental": "FIG. 1 (A and B). Human leukemic ICR-27-4 cells were electroporated (500 μF, 300V) with 2 μg pDBD*4 peptide or without peptide (Control). Equal concentrations of cells were then plated and quantified for viable cell numbers over time.\nas §9\nEqual concentrations of cells were then plated.\nIn FIG. 1A, cell viability was evaluated after 4 hr using the WST-1 dye reduction assay (8,9). Quadruplicate wells of a 96 well plate each received 200 μl of cells plus 20 μl of WST-1 dye. The plate was then placed in a tissue culture incubator for 4 hours. Spectrophotometric analysis was carried out on a plate reader with Absorbance read at 450-595 nm. Absorbancies were corrected for the average of triplicate chemical blanks (200 μl growth medium plus 20 μl WST-1 dye). Data are presented as percent of control.\nIn FIG. 1B, cell concentrations were determined after 4 hr. and 24 hr. by hemocytometer counts of duplicate aliquots, with trypan blue dye added in the 24 hr samples to discriminate non-viable, but membrane-intact cells."}, "[15]": {"details": "MCF-7, 1 h peptide, 5 h reincubation, 4 h dye, blank subtracted"}, "[16]": {"details": "NIH-3T3, 1 h peptide, 5 h reincubation, 4 h dye, blank subtracted"}}, "note": "Where two headings read alike, the source gives them in different places. No end group written: not given here."}
{"substance": "RRRRRRRRRYLCAGRNDCIIAIKFEEKTAQHAAIENVFRLE (cysteines drawn unpaired) [pDBD*4R9]", "values": [{"measurement": "killing activity / cell death", "setting": "[1]", "result": "caused death"}, {"measurement": "killing activity / cell death", "setting": "[1]; listed as pDBD*R9", "result": "Killing activity"}, {"measurement": "killing activity / cell death", "setting": "[2]", "result": "caused death"}, {"measurement": "killing activity / cell death", "setting": "[2]; listed as pDBD*R9", "result": "Killing activity"}, {"measurement": "Absorbance", "setting": "[3]; Expt 1, 25 microM, duplicates, avg +/- range", "result": "0.08 +/− 0.01"}, {"measurement": "Absorbance", "setting": "[3]; Expt 1, 50 microM, duplicates, avg +/- range", "result": "0.16 +/− 0.005"}, {"measurement": "Absorbance", "setting": "[3]; Expt 2, 100 microM, triplicates, avg +/- 1 SD", "result": "0.19 +/− 0.05"}, {"measurement": "estimated cell kill", "setting": "[3]; colon cancer cells, single treatment, 25-100 microM", "result": "50-75%"}, {"measurement": "Cells/ml after 23 h", "setting": "[4]; 5 μM peptide", "result": "1.8 × 10^5 Cells/ml"}, {"measurement": "Cells/ml after 23 h", "setting": "[4]; 10 μM peptide", "result": "1.95 × 10^5 Cells/ml"}, {"measurement": "Cells/ml after 23 h", "setting": "[4]; 20 μM peptide", "result": "0.5 × 10^5 Cells/ml"}, {"measurement": "cell loss / growth inhibition with increasing concentrations", "setting": "[4]; ICR27-4, increasing concentrations", "result": "caused cell loss in a dose-dependent manner"}, {"measurement": "loss of cells", "setting": "[4]; ICR27-4, maximum dose tested", "result": "> 2", "unit": "log"}, {"measurement": "cell killing", "setting": "[4]", "result": "killed the cells in a dose dependent manner"}, {"measurement": "cell killing", "setting": "[4]; listed as pDBD*R9", "result": "killed in a dose-dependent manner"}, {"measurement": "average reduction in ability to metabolize the tetrazolium dye", "setting": "[5]; MCF-7, dose of Table 2", "result": "over 3 fold"}, {"measurement": "WST-1 Absorbance, 450-595 nm, Well 1", "setting": "[5]; [15]", "result": 0.045}, {"measurement": "WST-1 Absorbance, 450-595 nm, Well 2", "setting": "[5]; [15]", "result": 0.087}, {"measurement": "WST-1 Absorbance, 450-595 nm, Well 3", "setting": "[5]; [15]", "result": 0.289}, {"measurement": "WST-1 Absorbance, 450-595 nm, Avg.", "setting": "[5]; MCF-7, average of 3 wells", "result": 0.140}, {"measurement": "anticancer effect (FIG. 2)", "setting": "[6]", "result": "significant anticancer effects"}, {"measurement": "cell killing", "setting": "[7]", "result": "killed in a dose-dependent manner"}, {"measurement": "metabolism of the tetrazolium dye", "setting": "[8]; NIH-3T3, dose of Table 2", "result": "not significantly altered"}, {"measurement": "WST-1 Absorbance, 450-595 nm, Well 1", "setting": "[8]; [16]", "result": 0.199}, {"measurement": "WST-1 Absorbance, 450-595 nm, Well 2", "setting": "[8]; [16]", "result": 0.216}, {"measurement": "WST-1 Absorbance, 450-595 nm, Well 3", "setting": "[8]; [16]", "result": 0.196}, {"measurement": "WST-1 Absorbance, 450-595 nm, Avg.", "setting": "[8]; NIH-3T3, average of 3 wells", "result": 0.204}, {"measurement": "killing activity / cell death", "setting": "[9]", "result": "caused death"}, {"measurement": "killing activity / cell death", "setting": "[9]; listed as pDBD*R9", "result": "Killing activity"}, {"measurement": "anticancer effect (FIG. 3)", "setting": "[10]; CEM C714 cells", "result": "significant anticancer effects"}, {"measurement": "cell killing", "setting": "[10]; CEM clone C7-14, peptide administered exogenously", "result": "killed in a dose-dependent manner"}]}
{"substance": "tyr-leu-cys-ala-gly-arg-asn-asp-cys-ile-ile-ala-ile-lys-phe-glu-glu-lys-thr-ala-gln-his-ala-ala-ile-glu-asn-val-phe-arg-leu-glu (YLCAGRNDCIIAIKFEEKTAQHAAIENVFRLE) [pDBD*4, 32-amino acid synthetic polypeptide, portion of the 89 aa peptide encoded by gene 398-465*]", "values": [{"measurement": "cell death", "setting": "[11]", "result": "causes cell death"}, {"measurement": "cell death", "setting": "[12]", "result": "causes cell death"}, {"measurement": "cell killing", "setting": "[13]; electroporation into glucocorticoid-susceptible and non-susceptible CEM clones", "result": "killed"}, {"measurement": "effect on cells", "setting": "[13]; exogenous application, CEM clones", "result": "no effect"}, {"measurement": "cell death", "setting": "[14]", "result": "causes cell death"}, {"measurement": "cell killing", "setting": "[4]", "result": "did not"}]}
